Assays:
Flt1(h) = Flt1(h) (Homo sapiens, UniProt P17948); test: in vitro tyrosine kinase inhibition; assay type: biochemical
Source text: (§1) Several in vitro tyrosine kinase inhibition activities can be measured according to the description in Rewcastle, G W, J. Med. Chem. 1996, 39, 918-928 and Edwards M, International Biotechnology Lab 5 (3), 19-25, 1987. Oncogene, 1990, 5: 519-524. The Baculovirus Expression System: A Laboratory Guide, L. A. King 1992. Sambrook et al, 1989, Molecular cloning—A Laboratory Manual, 2nd edition, Cold Spring Harbour Laboratory Press. O'Reilly et al, 1992, Baculovirus Expression Vectors—A Laboratory Manual, W. H. Freeman and Co, New York.
(§2) Receptor tyrosine kinase can be obtained in partially purified form from A-431 cells similar to those described by Carpenter et al., J. Biol. Chem., 1979, 254, 4884, Cohen et al., J. Biol. Chem., 1982, 257, 1523 and by Braun et al., J. Biol. Chem., 1984, 259, 2051. Some of these tests can also be contracted with Millipore Upstate Ltd for screening.

Flt4(h) = Flt4(h) (Homo sapiens, UniProt P35916); test: in vitro tyrosine kinase inhibition; assay type: biochemical
Flt4(h), sequence (P35916 25-1363): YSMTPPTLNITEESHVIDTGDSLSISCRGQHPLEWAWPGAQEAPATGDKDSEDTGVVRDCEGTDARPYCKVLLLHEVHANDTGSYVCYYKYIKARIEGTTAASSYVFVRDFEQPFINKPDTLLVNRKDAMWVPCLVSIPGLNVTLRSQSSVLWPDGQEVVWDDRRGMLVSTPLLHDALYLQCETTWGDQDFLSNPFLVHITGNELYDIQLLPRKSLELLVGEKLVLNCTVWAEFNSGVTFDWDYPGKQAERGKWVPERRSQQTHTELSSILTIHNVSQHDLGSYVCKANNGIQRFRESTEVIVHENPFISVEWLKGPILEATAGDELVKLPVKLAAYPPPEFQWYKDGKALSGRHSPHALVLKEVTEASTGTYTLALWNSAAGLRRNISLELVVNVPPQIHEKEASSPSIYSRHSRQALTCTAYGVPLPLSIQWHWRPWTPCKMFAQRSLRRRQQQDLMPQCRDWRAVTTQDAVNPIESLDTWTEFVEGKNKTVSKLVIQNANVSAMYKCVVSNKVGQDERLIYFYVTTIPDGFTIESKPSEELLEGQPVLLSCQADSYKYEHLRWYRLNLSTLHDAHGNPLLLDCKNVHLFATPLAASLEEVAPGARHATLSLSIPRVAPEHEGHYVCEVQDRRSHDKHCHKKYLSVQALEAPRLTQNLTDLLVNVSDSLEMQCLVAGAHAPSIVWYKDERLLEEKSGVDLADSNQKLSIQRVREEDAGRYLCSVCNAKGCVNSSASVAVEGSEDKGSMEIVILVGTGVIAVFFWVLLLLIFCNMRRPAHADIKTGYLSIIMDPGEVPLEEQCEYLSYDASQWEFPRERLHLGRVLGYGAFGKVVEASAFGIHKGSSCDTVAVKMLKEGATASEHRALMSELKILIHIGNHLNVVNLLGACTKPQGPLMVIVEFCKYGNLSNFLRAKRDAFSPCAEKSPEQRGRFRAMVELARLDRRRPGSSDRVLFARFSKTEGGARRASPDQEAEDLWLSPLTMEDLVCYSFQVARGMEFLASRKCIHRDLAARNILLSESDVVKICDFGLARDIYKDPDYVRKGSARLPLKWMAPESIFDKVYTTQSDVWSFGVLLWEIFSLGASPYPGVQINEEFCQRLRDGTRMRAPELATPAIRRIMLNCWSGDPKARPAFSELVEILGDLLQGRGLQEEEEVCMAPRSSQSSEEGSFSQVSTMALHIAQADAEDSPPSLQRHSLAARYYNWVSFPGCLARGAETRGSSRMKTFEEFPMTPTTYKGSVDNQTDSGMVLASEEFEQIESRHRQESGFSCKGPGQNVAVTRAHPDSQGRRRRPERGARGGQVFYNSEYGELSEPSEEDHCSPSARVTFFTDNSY
Source text: as §1, §2

PDGFRα(h) = PDGFRα(h) (Homo sapiens, UniProt P16234); test: in vitro tyrosine kinase inhibition; assay type: biochemical
PDGFRα(h), sequence (P16234 24-1089): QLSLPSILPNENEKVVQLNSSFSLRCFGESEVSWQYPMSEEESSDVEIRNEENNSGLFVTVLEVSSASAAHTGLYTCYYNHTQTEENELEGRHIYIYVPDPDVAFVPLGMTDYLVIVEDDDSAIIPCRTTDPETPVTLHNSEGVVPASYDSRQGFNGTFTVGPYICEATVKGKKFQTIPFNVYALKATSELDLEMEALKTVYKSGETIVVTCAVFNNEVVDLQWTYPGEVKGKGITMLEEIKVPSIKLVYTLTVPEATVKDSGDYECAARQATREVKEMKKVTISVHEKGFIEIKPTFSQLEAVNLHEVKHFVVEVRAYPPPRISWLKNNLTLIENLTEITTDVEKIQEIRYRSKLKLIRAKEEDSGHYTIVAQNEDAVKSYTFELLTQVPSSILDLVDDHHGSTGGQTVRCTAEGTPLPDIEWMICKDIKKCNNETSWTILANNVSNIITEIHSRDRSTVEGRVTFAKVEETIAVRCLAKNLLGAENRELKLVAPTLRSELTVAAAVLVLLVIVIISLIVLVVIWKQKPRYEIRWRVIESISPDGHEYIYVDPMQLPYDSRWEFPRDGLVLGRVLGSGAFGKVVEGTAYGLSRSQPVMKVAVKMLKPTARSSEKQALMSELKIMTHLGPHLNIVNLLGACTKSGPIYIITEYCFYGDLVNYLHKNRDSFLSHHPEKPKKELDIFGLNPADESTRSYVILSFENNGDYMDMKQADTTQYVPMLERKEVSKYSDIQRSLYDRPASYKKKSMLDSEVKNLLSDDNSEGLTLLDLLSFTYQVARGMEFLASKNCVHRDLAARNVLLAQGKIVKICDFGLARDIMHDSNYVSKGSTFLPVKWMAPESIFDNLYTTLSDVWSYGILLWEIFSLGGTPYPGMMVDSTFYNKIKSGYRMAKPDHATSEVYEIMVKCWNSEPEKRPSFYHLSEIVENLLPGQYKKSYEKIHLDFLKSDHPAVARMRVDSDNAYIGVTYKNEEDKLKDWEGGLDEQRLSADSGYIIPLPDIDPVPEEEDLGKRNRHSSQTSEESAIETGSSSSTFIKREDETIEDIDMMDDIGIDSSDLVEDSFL
Source text: as §1, §2

cKit(h) = cKit(h) (Homo sapiens, UniProt P10721); test: in vitro tyrosine kinase inhibition; assay type: biochemical
cKit(h), sequence (P10721 26-976): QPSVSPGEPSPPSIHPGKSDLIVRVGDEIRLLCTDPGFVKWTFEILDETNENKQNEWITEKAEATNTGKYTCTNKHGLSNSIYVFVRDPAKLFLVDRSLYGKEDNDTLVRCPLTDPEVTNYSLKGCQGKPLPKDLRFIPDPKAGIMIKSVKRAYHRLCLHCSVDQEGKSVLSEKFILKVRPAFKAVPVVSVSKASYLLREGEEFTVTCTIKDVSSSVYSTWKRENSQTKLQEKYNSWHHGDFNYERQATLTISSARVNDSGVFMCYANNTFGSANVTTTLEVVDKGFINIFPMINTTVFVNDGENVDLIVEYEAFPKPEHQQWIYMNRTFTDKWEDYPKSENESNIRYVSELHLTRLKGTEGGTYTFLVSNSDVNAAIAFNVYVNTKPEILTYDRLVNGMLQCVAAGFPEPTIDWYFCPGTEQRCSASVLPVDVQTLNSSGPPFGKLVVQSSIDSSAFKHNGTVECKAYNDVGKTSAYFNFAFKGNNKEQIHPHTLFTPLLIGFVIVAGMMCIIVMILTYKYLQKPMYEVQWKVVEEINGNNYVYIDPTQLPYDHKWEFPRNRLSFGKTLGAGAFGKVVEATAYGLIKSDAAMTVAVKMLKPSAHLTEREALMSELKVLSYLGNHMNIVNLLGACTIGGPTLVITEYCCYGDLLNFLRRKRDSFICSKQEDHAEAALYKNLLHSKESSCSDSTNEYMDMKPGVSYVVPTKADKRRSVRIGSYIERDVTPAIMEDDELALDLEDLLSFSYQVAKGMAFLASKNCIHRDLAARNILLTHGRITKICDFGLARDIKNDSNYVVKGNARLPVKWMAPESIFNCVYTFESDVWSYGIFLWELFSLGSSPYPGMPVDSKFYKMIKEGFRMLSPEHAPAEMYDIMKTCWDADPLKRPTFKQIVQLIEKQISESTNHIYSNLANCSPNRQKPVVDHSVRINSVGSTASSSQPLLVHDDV
Source text: as §1, §2

c-RAF(h) = c-RAF(h) (Homo sapiens, UniProt P04049); test: in vitro kinase inhibition; assay type: biochemical
c-RAF(h), sequence (P04049 whole entry): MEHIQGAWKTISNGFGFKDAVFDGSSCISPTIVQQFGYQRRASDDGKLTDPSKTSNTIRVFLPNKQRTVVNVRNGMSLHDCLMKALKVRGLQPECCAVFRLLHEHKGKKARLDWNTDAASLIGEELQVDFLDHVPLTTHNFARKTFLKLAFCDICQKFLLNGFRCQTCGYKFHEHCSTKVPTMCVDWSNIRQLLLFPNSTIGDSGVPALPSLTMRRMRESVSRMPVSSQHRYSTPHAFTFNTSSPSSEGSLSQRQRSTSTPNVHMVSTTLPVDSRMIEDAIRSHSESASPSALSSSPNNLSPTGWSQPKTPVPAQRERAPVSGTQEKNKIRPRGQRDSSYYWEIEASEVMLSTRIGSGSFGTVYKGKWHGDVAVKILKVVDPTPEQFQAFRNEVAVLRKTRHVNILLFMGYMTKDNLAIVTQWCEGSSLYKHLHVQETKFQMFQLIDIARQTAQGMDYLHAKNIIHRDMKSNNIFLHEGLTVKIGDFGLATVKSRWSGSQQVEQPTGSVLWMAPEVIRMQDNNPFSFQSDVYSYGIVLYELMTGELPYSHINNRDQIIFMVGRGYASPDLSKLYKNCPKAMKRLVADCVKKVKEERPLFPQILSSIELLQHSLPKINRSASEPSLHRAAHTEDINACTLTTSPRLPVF
Source text: as §1, §2

KDR(h) = KDR(h) (Homo sapiens, UniProt P35968); test: in vitro tyrosine kinase inhibition; assay type: biochemical
[1] = test system: human colon cancer HT29 xenograft; test: animal antitumor activity, HT29 xenograft; assay type: in vivo, mice; conditions: FIG. 1
[2] = test system: human liver cancer Bel-7402 xenograft; test: animal antitumor activity, Bel-7402 xenograft; assay type: in vivo, mice; conditions: FIG. 2

`CNC(=O)c1cccc2cc(Oc3ccnc4cc(OCC5(N)CC5)c(OC)cc34)ccc12` [AL3810] showed an IC50 (Flt1(h)) of 0.004 µM, an IC50 (Flt4(h)) of 0.002 µM and an IC50 (PDGFRα(h)) of 0.219 µM. It also gave an IC50 (cKit(h)) of 0.234 µM, an IC50 (c-RAF(h)) of 0.293 µM and an IC50 (KDR(h)) of 0.015 µM. For the same molecule, the “efficacy on animal model compared with SU11248” value [1] was “better efficacy than SU11248” and the “efficacy on animal model compared with Nexavar” value [2] was “better efficacy”.

Source: patent US8513283B2, “Spiro substituted compounds as angiogenesis inhibitors” (Advenchen Laboratories, LLC, priority 2007, dated 2013)
